Measurements from patent publication US20150086530A1, “DOSING REGIMENS FOR THE TREATMENT OF POMPE DISEASE” (Amicus Therapeutics, Inc., priority 2012, published 2015).
Values joined by “and” are separate entries in the source; they are usually repeats but may differ in a detail not shown here. Equal entries are not always repeated. Where two headings read alike, the source gives them in different places.

Assay: Plasma AT2220 (1-deoxynojirimycin hydrochloride) pharmacokinetics by LC-MS/MS in Pompe patients
Assay type: in vivo, human
Conditions: for Tmax / half-life / AUC(0-t) / AUC(0-inf) / Cmax: human, plasma, oral; for AUC(0-t): read-out: Plasma AT2220 AUC0-T; for AUC(0-inf): read-out: Plasma AT2220 AUC0-∞; for Cmax: read-out: Plasma AT2220 Cmax
Procedure: Blood samples for pharmacokinetic analysis will be collected before dosing 1-deoxynojirimycin hydrochloride and at 1 hour after administration of 1-deoxynojirimycin hydrochloride (i.e., immediately before initiation of the alglucosidase alfa infusion) and over the 24-hour period after initiation of the alglucosidase alfa infusion. Plasma and WBC GAA enzyme activity, plasma 1-deoxynojirimycin hydrochloride concentrations and plasma anti-rhGAA antibody titer will be determined from the collected blood samples at the times summarized in Table 2. A 12-lead ECG will be performed at the end of the alglucosidase alfa infusion, immediately after collection of the post-infusion blood sample.
Concentrations of 1-deoxynojirimycin hydrochloride in blood samples will be measured in plasma using a validated LC-MS/MS assay. GAA activity in plasma will be determined by a validated assay measuring enzyme activity using 4-MUG, with and without Con A. GAA protein levels will be measured by Western blotting using anti-human GAA antibody.
Non-compartmental pharmacokinetic parameters of AUC0-t, AUCinfinity, Cmax, tmax, kel and half-life will be calculated from plasma 1-deoxynojirimycin hydrochloride concentrations and plasma rhGAA enzyme levels. Pharmacokinetic parameters will be summarized by treatment using descriptive statistics. The AUC0-t, AUCinfinity ratios for GAA enzyme activity alone or after administration with 1-deoxynojirimycin hydrochloride will be calculated. Pharmacokinetic and pharmacodynamic data for those subjects receiving Myozyme® and Lumizyme® will be analyzed separately.

[1] = Cohort 3, 250 mg AT2220, Max, N=6
[2] = Cohort 3, 250 mg AT2220, Min, N=6
[3] = Cohort 3, 250 mg AT2220, individual subjects
[4] = 50 mg, 50 mg AT2220 (N = 4), Cohort 1, Geometric mean (CV %)
[5] = 100 mg, 100 mg AT2220 (N = 6), Cohort 2, Geometric mean (CV %)
[6] = 250 mg, 250 mg AT2220 (N = 6), Cohort 3, Geometric mean (CV %)
[7] = 250 mg, Cohort 3, 250 mg AT2220, Geometric Mean, N=6
[8] = 250 mg, Cohort 3, 250 mg AT2220, Mean, N=6

OC[C@H]1NC[C@H](O)[C@@H](O)[C@@H]1O [AT2220, (2R,3R,4R,5S)-2-hydroxymethyl-piperidine-3,4,5-triol]
linearity of plasma pharmacokinetics (50 mg and 100 mg doses): approximately linear
linearity of plasma pharmacokinetics (50 mg and 100 mg doses, listed as 1-DNJ-HCl): approximately linear PK
increase in Cmax and AUC with dose (50 mg to 100 mg): ~2 fold
Plasma AT2220 AUC0-∞ Ratio (100 mg AT2220 (N = 6) relative to 50 mg): 1.9
AUC0-∞ Ratio, plasma AT2220 (100 mg vs 50 mg dose): 1.9
Plasma AT2220 AUC0-∞ Ratio (250 mg AT2220 (N = 6) relative to 50 mg): 3.2
Plasma AT2220 AUC0-T [1]: 29.67 µg·h/mL
Plasma AT2220 AUC0-∞ [1]: 29.916 µg·h/mL
Plasma AT2220 Cmax [1]: 4.75 µg/mL
Plasma AT2220 T½ [1]: 4.6 h
Plasma AT2220 AUC0-T [2]: 18.321 µg·h/mL
Plasma AT2220 AUC0-∞ [2]: 18.711 µg·h/mL
Plasma AT2220 Cmax [2]: 2.09 µg/mL
Plasma AT2220 Tmax [2]: 2.0 h
Plasma AT2220 T½ [2]: 3.0 h
Plasma AT2220 AUC0-T [3]: 19.344 µg·h/mL and 29.67 µg·h/mL and 22.23 µg·h/mL and 18.321 µg·h/mL and 24.278 µg·h/mL
Plasma AT2220 AUC0-∞ [3]: 19.534 µg·h/mL and 29.916 µg·h/mL and 22.345 µg·h/mL and 18.711 µg·h/mL and 24.558 µg·h/mL
Plasma AT2220 Cmax [3]: 2.09 µg/mL and 2.74 µg/mL and 4.75 µg/mL and 3.62 µg/mL and 2.35 µg/mL and 4.22 µg/mL
Plasma AT2220 Tmax [3]: 2.0 h
Tmax (both sexes, 50 mg and 100 mg doses, read-out: rate of absorption (Tmax)): 2 to 3 h
increase in mean AUC, plasma AT2220 (from 50 mg to 100 mg): 1.9 fold
increase in mean Cmax, plasma AT2220 (from 50 mg to 100 mg): 1.8 fold
half-life (50 mg, 50 mg AT2220 (N = 4), Cohort 1, Arithmetic mean (SD), read-out: Plasma AT2220 t½ (converted)): 3.1 h
AUC(0-t) [4]: 6.97 µg·h/mL
AUC(0-inf) [4]: 7.01 µg·h/mL
Cmax [4]: 1.03 µg/mL
Tmax (50 mg, 50 mg AT2220 (N = 4), Cohort 1, Median (range), read-out: Plasma AT2220 Tmax): 2 h
half-life (100 mg, 100 mg AT2220 (N = 6), Cohort 2, Arithmetic mean (SD), read-out: Plasma AT2220 t½ (converted)): 3.4 h
AUC(0-t) [5]: 13 µg·h/mL
AUC(0-inf) [5]: 13.1 µg·h/mL
Cmax [5]: 1.86 µg/mL
Tmax (100 mg, 100 mg AT2220 (N = 6), Cohort 2, Median (range), read-out: Plasma AT2220 Tmax): 3 h
half-life (250 mg, 250 mg AT2220 (N = 6), Cohort 3, Arithmetic mean (SD), read-out: Plasma AT2220 t½ (converted)): 3.7 h
AUC(0-t) [6]: 21.8 µg·h/mL
AUC(0-inf) [6]: 22.1 µg·h/mL
Cmax [6]: 3.15 µg/mL
Tmax (250 mg, 250 mg AT2220 (N = 6), Cohort 3, Median (range), read-out: Plasma AT2220 Tmax): 2 h
AUC(0-t) [7]: 21.8 µg·h/mL
AUC(0-inf) [7]: 22.1 µg·h/mL
Cmax [7]: 3.15 µg/mL
Tmax (250 mg, Cohort 3, 250 mg AT2220, Geometric Mean, N=6, read-out: Plasma AT2220 Tmax): 2.3 h
half-life (250 mg, Cohort 3, 250 mg AT2220, Geometric Mean, N=6, read-out: Plasma AT2220 T½ (converted)): 3.7 h
AUC(0-t) [8]: 22.1 µg·h/mL
AUC(0-inf) [8]: 22.4 µg·h/mL
Cmax [8]: 3.29 µg/mL
Tmax (250 mg, Cohort 3, 250 mg AT2220, Mean, N=6, read-out: Plasma AT2220 Tmax): 2.3 h
